Test results as given in patent US20230212129A1, “QUINAZOLINE DERIVATIVES USEFUL AS SELECTIVE HDAC6 INHIBITORS” (AnnJi Pharmaceutical Co., Ltd., priority 2020, published 2023).

Test system: BioMAP Fibrosis panel (REMyoF, SAEMyoF, MyoF systems)
Assay: BioMAP Fibrosis panel cytokine/biomarker profiles
Assay type: cell-based
Experimental: The HDAC6 inhibitor compounds were tested in a commercially available platform, BioMAP, for the cytokine profiles in related to tissue injuries. The BioMAP Fibrosis panel included 3 systems stimulated to model TGFβ and TNFα driven myofibroblast differentiation during chronic inflammation and wound healing in different tissue settings. Fibrotic disease of the kidney associated with end-stage renal failure was captured in the REMyoF system consisting of a co-culture of renal proximal tubule epithelial cells and adult fibroblasts. Interstitial lung diseases, including pulmonary fibrotic diseases such as idiopathic pulmonary fibrosis (IPF), was modeled by co-culturing small airway epithelial cells and adult fibroblasts in the SAEMyoF system. Both co-culture systems modeled the paracrine interaction between myofibroblasts and the proximally located epithelial cells, while the impact on fibroblasts alone was interrogated using the monoculture MyoF system. A signature BioMAP profile that is reflective of the changes in protein biomarker readouts within an individual system was generated for each testing compounds. Biomarker readouts selected for therapeutic and biological relevance were predictive for disease outcomes or specific drug effects, and was validated using agents with known clinical efficacy. Each readout was measured quantitatively by immune-based methods that detect protein (e.g., ELISA).

Compound: CCc1nc2cc(F)c(/C=C/C(=O)NO)cc2c(=O)n1-c1c(C)cccc1C [Compound 2, (E)-3-(3-(2,6-dimethylphenyl)-2-ethyl-7-fluoro-4-oxo-3,4-dihydroquinazolin-6-yl)-N-hydroxyacrylamide]
- fibrosis-related matrix activities (BioMAP readouts): decreased TIMP-1, MMP-1, Collagen I, Collagen III, MMP-9
- inflammation-related activities (BioMAP readouts): decreased M-CSF, VCAM-1, sIL-6, MCP-1; increased I-TAC
- myofibroblast activation-related activities (BioMAP readouts): decreased αSMA, N-Cadherin
- tissue remodeling/wound healing activities (BioMAP readouts): decreased EGFR, tPA, uPA, bFGF, sVEGF
- activities on cytokines contributing to fibrosis (compared with nintedanib): marked activities in decreasing TNF-α, IL-1, IL-6, MMP-9, VEGF, and collagen I
